{"source": "patent US20160185712A1", "about": "“PHOTO-ACTIVATED HYDROGELS” (L'OREAL, priority 2014, published 2016)", "origin": "cited, not measured here"}
{"smiles": "O=C1c2ccccc2C(=O)c2cc(S(=O)(=O)[O-])ccc21.[Na+]", "note": "[anthraquinone-2-sulfonic acid sodium salt]", "values": [{"measurement": "water solubility", "result": "water soluble"}]}
